In ChEMBL document CHEMBL1131296 (J Med Chem, 1998):

Tests used:
[1] = target: T1, Alpha-1D adrenergic receptor (Homo sapiens, UniProt P25100); experiment: Binding affinity at human cloned Alpha-1D adrenergic receptor in chinese hamster ovary cells by [3H]prazosin displacement.; format: cell-based, CHO
T1 sequence (P25100 whole entry): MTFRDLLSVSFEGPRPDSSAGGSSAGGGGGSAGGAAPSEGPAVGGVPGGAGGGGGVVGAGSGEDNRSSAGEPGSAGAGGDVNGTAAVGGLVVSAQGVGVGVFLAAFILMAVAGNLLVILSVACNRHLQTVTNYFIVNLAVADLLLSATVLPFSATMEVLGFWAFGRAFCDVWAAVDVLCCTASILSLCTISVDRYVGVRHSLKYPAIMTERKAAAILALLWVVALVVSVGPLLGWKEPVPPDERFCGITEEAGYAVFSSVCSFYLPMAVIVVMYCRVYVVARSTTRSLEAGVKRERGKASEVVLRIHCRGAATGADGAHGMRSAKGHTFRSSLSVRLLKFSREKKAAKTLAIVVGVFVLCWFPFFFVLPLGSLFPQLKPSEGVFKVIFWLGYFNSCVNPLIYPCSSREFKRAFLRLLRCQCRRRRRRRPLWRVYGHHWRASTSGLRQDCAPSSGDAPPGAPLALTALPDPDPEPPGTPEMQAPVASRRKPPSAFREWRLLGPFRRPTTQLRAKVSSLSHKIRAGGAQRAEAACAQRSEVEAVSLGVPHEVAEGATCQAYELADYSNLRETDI

[2] = target: T2, Alpha-1A adrenergic receptor (Homo sapiens, UniProt P35348); experiment: Binding affinity at human cloned Alpha-1A adrenergic receptor in chinese hamster ovary cells by [3H]-prazosin displacement.; format: cell-based, CHO
T2 sequence (P35348 whole entry): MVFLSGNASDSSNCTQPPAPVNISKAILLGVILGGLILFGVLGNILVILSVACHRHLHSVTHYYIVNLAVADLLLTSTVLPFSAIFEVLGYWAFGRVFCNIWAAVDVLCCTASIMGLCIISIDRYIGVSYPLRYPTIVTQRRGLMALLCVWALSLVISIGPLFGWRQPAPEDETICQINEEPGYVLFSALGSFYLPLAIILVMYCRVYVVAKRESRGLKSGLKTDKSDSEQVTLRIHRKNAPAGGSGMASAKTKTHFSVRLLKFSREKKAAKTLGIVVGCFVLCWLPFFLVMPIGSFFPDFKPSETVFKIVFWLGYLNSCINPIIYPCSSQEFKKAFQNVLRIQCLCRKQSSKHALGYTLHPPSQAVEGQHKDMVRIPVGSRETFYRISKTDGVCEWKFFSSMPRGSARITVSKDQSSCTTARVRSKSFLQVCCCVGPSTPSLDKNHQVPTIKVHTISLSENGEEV

[3] = target: T3, Alpha-1B adrenergic receptor (Homo sapiens, UniProt P35368); experiment: Binding affinity at human cloned Alpha-1B adrenergic receptor in chinese hamster ovary cells by [3H]prazosin displacement.; format: cell-based, CHO
T3 sequence (P35368 whole entry): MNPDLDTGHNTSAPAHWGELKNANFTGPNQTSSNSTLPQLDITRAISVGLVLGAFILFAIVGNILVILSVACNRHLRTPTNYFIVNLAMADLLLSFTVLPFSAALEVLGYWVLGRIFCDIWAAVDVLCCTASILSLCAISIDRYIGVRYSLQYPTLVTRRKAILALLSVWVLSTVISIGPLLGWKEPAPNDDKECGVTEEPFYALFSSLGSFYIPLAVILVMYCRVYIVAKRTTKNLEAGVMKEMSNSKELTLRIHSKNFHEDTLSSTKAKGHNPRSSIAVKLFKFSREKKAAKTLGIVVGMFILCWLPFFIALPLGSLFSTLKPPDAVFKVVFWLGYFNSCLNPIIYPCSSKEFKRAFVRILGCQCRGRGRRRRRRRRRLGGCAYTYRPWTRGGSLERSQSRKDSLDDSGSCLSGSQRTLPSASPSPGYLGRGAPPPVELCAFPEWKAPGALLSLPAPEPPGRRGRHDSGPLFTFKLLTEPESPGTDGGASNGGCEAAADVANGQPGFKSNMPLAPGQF

[4] = target: T4, Adrenergic receptor alpha-2 (Rattus norvegicus, UniProt P22086+P19328+P22909); experiment: Antagonism of the clonidine-induced depression of twitch responses of rat isolated prostatic vas deferens.
T4 sequence (P22086 whole entry): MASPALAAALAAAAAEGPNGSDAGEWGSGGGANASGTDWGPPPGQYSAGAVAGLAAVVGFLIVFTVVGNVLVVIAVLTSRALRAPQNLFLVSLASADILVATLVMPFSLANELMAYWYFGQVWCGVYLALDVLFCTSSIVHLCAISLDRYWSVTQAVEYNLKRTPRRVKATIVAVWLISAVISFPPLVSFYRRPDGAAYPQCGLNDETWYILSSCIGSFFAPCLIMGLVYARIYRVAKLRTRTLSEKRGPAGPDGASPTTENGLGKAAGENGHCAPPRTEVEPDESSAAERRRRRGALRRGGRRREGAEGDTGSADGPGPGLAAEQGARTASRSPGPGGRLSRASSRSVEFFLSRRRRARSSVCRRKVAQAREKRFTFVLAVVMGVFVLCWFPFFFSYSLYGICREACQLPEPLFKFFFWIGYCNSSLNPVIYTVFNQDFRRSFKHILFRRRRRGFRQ
T4 sequence (P19328 whole entry): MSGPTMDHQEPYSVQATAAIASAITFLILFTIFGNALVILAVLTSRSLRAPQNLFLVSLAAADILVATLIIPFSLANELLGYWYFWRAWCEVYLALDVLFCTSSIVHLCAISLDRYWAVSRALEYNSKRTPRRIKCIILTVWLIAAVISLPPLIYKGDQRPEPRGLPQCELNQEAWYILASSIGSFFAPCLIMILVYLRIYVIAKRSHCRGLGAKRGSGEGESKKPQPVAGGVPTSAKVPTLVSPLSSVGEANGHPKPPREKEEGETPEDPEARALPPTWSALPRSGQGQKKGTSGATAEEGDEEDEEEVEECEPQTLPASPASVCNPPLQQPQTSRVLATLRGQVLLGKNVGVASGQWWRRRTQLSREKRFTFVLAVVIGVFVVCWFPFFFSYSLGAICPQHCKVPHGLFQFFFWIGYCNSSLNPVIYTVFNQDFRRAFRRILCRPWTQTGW
T4 sequence (P22909 whole entry): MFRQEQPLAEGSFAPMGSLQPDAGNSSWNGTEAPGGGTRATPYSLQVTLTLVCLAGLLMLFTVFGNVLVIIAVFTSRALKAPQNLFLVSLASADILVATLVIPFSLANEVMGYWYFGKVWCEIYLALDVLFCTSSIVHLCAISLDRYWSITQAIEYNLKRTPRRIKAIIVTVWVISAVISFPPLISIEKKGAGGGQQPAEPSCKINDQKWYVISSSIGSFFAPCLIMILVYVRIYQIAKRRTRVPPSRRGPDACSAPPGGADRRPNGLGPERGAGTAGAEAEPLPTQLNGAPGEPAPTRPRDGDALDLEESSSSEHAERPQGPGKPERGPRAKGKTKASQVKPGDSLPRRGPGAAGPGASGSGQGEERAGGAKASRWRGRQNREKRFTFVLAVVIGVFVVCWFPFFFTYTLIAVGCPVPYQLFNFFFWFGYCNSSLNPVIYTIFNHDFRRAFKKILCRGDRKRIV

D(2) dopamine receptor = D(2) dopamine receptor (Rattus norvegicus, UniProt P61169); experiment: Binding affinity at native Dopamine receptor D2 in rat striatum by [3H]spiperone displacement.; format: tissue-based
D(2) dopamine receptor, sequence (P61169 whole entry): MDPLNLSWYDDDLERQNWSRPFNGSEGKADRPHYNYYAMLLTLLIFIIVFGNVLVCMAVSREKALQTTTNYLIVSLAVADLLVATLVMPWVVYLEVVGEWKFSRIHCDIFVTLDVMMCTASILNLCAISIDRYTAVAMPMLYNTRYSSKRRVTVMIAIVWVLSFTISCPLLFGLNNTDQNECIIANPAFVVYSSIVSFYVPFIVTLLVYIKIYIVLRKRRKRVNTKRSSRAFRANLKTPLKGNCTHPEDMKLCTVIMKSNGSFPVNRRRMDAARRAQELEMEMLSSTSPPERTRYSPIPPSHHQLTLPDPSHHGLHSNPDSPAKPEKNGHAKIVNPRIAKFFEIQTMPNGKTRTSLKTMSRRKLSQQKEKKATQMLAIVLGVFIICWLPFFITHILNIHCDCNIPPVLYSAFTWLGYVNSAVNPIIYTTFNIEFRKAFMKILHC

Row | Ki [1] [nM] | Ki [2] [nM] | Ki [3] [nM] | pA2 [4] | Ki (D(2) dopamine receptor) [nM] | SMILES
1 | 0.195 | 0.166 | 0.11 | 6.66 |  | COc1cc2nc(N(C)CCCCCCN(C)C(=O)c3ccco3)nc(N)c2cc1OC
2 | 0.724 | 0.417 | 1.07 | < 5 | > 10000 | COc1cc2nc(N(C)CCSSCCN(C)C(=O)c3ccco3)nc(N)c2cc1OC
